Measured values: ChEMBL document CHEMBL3988181, “GlaxoSmithKline Published Kinase Inhibitor Set 2 Onchocerca lienalis Screening Data”

Assay: GSK PKIS2: Screen against O. lienalis microfilariae, single point, at 3.1uM to assess reduction in motility. Compounds were also tested for cytotoxicity against Rhesus Monkey LLCMK2 cells.
Format: functional, Onchocerca lienalis, LLC-MK2
Conditions: CELL_LINE LLCMK2; CELL_SUPPLIER ECACC; CONC 3.1 uM; ORGANISM_SUPPLIER Extracted from peri-umbilical skin obtained from naturally infected cattle in the UK; temperature 37 degree C

SMILES | MOTILITY REDUCTION/CYTOTOXICITY [%]
O=C(NC1CCN(c2ccnc(Nc3ccc(F)cc3)n2)C1)c1cc2ccccc2s1 (configuration not stated) | 0
O=C(Nc1cccc(-c2nn3ncccc3c2-c2ccnc(Nc3cccnc3)n2)c1)c1c(F)cccc1F | 0
COc1cccc(C2=C(Nc3ccc(SC)cc3)C(=O)NC2=O)c1 | 0
Cc1ccc(C)c(NC(=O)Nc2ccc(C)c(-c3ccc(C(=O)Nc4ccncc4)cc3)c2)c1 | 33.4
COc1ccc(Nc2nccc(N3CCC(NS(=O)(=O)c4ccc(NC(C)=O)cc4)C3)n2)cc1 (configuration not stated) | 33.4
C=CC(=O)Nc1cc2c(Nc3ccc(F)c(Cl)c3)ncnc2cc1OCCCN1CCOCC1 [CANERTINIB] | 0
CCOc1nccc(-c2c(-c3ccc(F)cc3)ncn2C2CCNCC2)n1 | 0
COc1cc(Nc2nccc(N3CCC(NC(=O)Nc4cccc(C(C)=O)c4)C3)n2)cc(OC)c1OC (configuration not stated) | 100
O=C(Nc1n[nH]c2nc(-c3nccs3)c(Br)cc12)C1CC1 | 20
O=C(Nc1ccccc1F)NC1CCN(c2ccnc(Nc3ccc(F)cc3)n2)C1 (configuration not stated) | 0
Cc1nnc(-c2ccc(C)c(-c3ccc(C(=O)O)cc3)c2)o1 | 33.4
Cc1ccccc1CC(=O)N1CCc2cc(-c3cn(C)c4ncnc(N)c34)ccc21 | 33.4
COc1ccccc1C1=C(Nc2cccc(O)c2)C(=O)NC1=O | 100
CC(C(=O)NC1CCN(c2ccnc(Nc3ccc(F)cc3)n2)C1)c1ccc(Cl)cc1 (configuration not stated) | 33.4
Oc1cc(-c2nc(-c3ccccc3)[nH]c2-c2ccncc2)ccc1Cl | 0
Cc1cccc(Nc2nc(N[C@H]3CCNC3)ncc2C(N)=O)c1 | 26.7
CCn1c(-c2nonc2N)nc2c(C#CC(C)(C)O)nc(OCCN)cc21 | 0
COc1cccc(-n2cnc3c(N)ncnc32)c1 | 0
Fc1ccc(-c2ncn(C3CCNCC3)c2-c2ccnc(Oc3ccc(-c4ccccc4)cc3)n2)cc1 | 0
O=C(Nc1n[nH]c2cc(-c3ccsc3)ccc12)C1CC1 | 0
CN(c1ccc(NC(=O)Nc2cccc(Cl)c2)cc1)c1ccnc(N)n1 | 13.4
Nc1ncnc2scc(-c3ccc(NC(=O)Cc4cc(F)ccc4F)cc3)c12.O=C(O)C(F)(F)F | 40
FC(F)(F)c1ccc(-c2cc(-c3c[nH]nc3-c3ccccn3)ccn2)cc1 | 0

SMILES | MOTILITY REDUCTION/CYTOTOXICITY [%]
Nc1nc(-c2ccc3c(N)n[nH]c3c2)cc(N2CCC[C@@H](C(=O)Nc3ccccc3)C2)n1 | 0
Oc1ccc(-c2[nH]c(-c3ccccc3)nc2-c2ccncc2)cc1 | 0
C[C@@H]1CC[C@@H](C(=O)Nc2ccccc2)CN1c1cc(-c2ccc3c(N)n[nH]c3c2)nc(N)n1 | 0
CNc1nccc(-c2ccc3c(N)n[nH]c3c2)n1 | 0
COc1ccc(Nc2nccc(N3CCC(NC(=O)C(C)c4ccc(Cl)cc4)CC3)n2)cc1 (configuration not stated) | 33.4
COc1ccccc1CNC(=O)c1cc(C(=O)c2ccccc2C)c[nH]1 | 86.7
NS(=O)(=O)c1cccc(-c2ccc3ncc(N4CCOCC4)nc3c2)c1 | 0
N#Cc1cccc(C(=O)NC2CCN(c3ccnc(Nc4ccc(F)cc4)n3)C2)c1 (configuration not stated) | 20
c1ccc(-c2cnc3nccnn23)cc1 | 0
COc1cccc(C2=C(Nc3cc(Cl)c(O)c(Cl)c3)C(=O)NC2=O)c1 | 0
CCn1c(-c2ccccn2)nc2cnccc21 | 0
NS(=O)(=O)c1cccc(N/C=C2\C(=O)Nc3ccc(S(=O)(=O)Cc4c(Cl)cccc4Cl)cc32)c1 | 33.4
NCC(C(=O)Nc1cc(Br)c(-c2ccnc3[nH]ccc23)s1)c1ccccc1 (configuration not stated) | 0
c1ccc(Oc2ccc(Nc3ccnc4cc(-c5ccc(CN6CCCCC6)o5)ccc34)cc2)nc1 | 20
Cc1ccn2nc(-c3ccc(F)cc3)c(-c3ccncc3)c2c1 | 0
NCCNS(=O)(=O)c1ccc(-c2ccnc3[nH]ccc23)cc1 | 0
O=C1NC(=O)C(c2ccc(Cl)cc2)=C1Nc1ccc(O)c(Cl)c1 | 33.4
Cc1nccc(-c2c(-c3ccc(F)cc3)ncn2CCCN2CCOCC2)n1 | 0
COc1cccc(-c2[nH]c(-c3ccccc3)nc2-c2ccncc2)c1 | 33.4
CN1CCN(CCCNc2nccc(-c3c(-c4ccc(F)cc4)nn4cc(C(N)=O)ccc34)n2)CC1 | 13.4
COc1nccc(-c2c(-c3ccc(F)cc3)ncn2CCCN2CCOCC2)n1 | 0
Cc1cccc(Nc2nc(NCCN)ncc2C(N)=O)c1 | 0
FC(F)(F)c1cc(Nc2nccc(-c3c(-c4ccc(Cl)cc4)nn4ncccc34)n2)ccc1Cl | 20

SMILES | MOTILITY REDUCTION/CYTOTOXICITY [%]
Nc1n[nH]c2cnc(-c3ccccc3)cc12 | 0
Cc1cccc(-c2cc(Nc3ccncc3)c3ccccc3n2)n1 | 0
FC(F)(F)c1cc(Br)cc(Nc2nccc(-c3cnn4ncccc34)n2)c1 | 46.7
Cn1cc(-c2ccc3c(c2)CCN3C(=O)Cc2cccc(F)c2)c2c(N)ncnc21 | 33.4
COc1ccc(CNC(=O)NC2CCN(c3ccnc(Nc4ccc(F)cc4)n3)CC2)cc1 | 33.4
CC(=O)c1cccc(NC(=O)NC2CCN(c3ccnc(Nc4ccc(F)cc4)n3)C2)c1 (configuration not stated) | 0
COc1cc2nccc(Nc3ccc(NC(=O)c4ccc(C)cc4)c(O)c3)c2cc1OC | 0
Nc1cccc(-c2ccc3c(N)n[nH]c3c2)c1 | 33.4
FC(F)(F)c1ccccc1-c1cc(-c2c[nH]nc2-c2ccccn2)ccn1 | 0
Nc1ncc(-c2ccc3nccc(-c4ccncc4)c3c2)cc1S(=O)(=O)N1CCOCC1 | 40
CN(C)CC(O)COc1ccc(Nc2nccc(-c3cnn4nc(N5CCOCC5)ccc34)n2)cc1 (configuration not stated) | 0
CCCc1ccc(S(=O)(=O)NC2CCN(c3ccnc(Nc4ccc(F)cc4)n3)C2)cc1 (configuration not stated) | 0
COc1ccc(NC(=O)c2ccc(-c3cc(-c4nnc(C)o4)ccc3C)cc2)cc1 | 33.4
c1ccc(-c2ccnc3[nH]ccc23)cc1 | 33.4
Cc1ccc(NC(=O)Nc2cccc(Cl)c2)cc1-c1ccc(C(=O)Nc2ccncc2)cc1 | 33.4
O=C1NC(=O)C(N2CCc3ccccc32)=C1c1cccc(Cl)c1 | 0
COc1cc2ncnc(Nc3ccc(OCc4ccccc4Br)c(Cl)c3)c2cc1OC.Cl | 0
Cc1cc(-c2ccnc(Nc3cccc(C#N)c3)n2)cc(C)c1O | 0
O=c1cc(N2CCOCC2)nc2n(Cc3cccc(C(F)(F)F)c3)ccn12 | 26.7
CCn1cnc2c(NCc3ccccc3)ncnc21 | 0
COc1cccc(NC(=O)NCCNc2ccnc(Nc3ccc(F)cc3)n2)c1 | 33.4
Cc1c(Cn2c(C)nn3c(=O)cc(N4CCOC(C)C4)nc23)cccc1C(F)(F)F (configuration not stated) | 0
Cc1c(Cn2ccn3c(=O)cc(N4CCOCC4)nc23)cccc1C(F)(F)F | 0

SMILES | MOTILITY REDUCTION/CYTOTOXICITY [%]
Cc1ccc(-n2nc(C(C)(C)C)cc2NC(=O)Nc2ccc(OCCN3CCOCC3)c3ccccc23)cc1 [DORAMAPIMOD] | 33.4
COc1cc2c(Nc3cccc(NC(=O)c4ccccc4)c3)ncnc2cc1OCCCN1CCOCC1 | 0
COc1cccc(-c2cc(-c3c[nH]nc3-c3ccccn3)ccn2)c1 | 0
Cc1ccc(C(=O)NC2CCCC2)cc1-c1ccc(C(=O)NCC2CC2)cc1 | 20
Cc1nn2c(=O)cc(N3CCOCC3)nc2n1Cc1cccc(Cl)c1Cl | 0
c1ccc(Oc2ccc(Nc3ccnc4cc(-c5ccc(CNCCN6CCOCC6)o5)ccc34)cc2)nc1 | 0
CCN1CCN(CCCC(=O)Nc2n[nH]c3nc(-c4ccc(O)cc4)c(Br)cc23)CC1 | 20
Cc1cccc(-c2nc(Nc3ccc4ncsc4c3)c3ccccc3n2)n1 | 100
CN1C(=O)C(Nc2cc(Cl)c(O)c(Cl)c2)=C(c2ccc(Cl)cc2)C1=O | 0
COC(=O)Nc1nc2ccc(Oc3ccc(NC(=O)Nc4cc(C(F)(F)F)ccc4Cl)cc3)cc2[nH]1 | 0
CC(C)N1CCC(n2cnc(-c3ccc(F)cc3)c2-c2ccnc(N)n2)CC1 | 0
NCCCC(NC(=O)c1cc(Br)c(-c2ccnc3[nH]ccc23)s1)c1ccccc1 (configuration not stated) | 0
Fc1cccc(COc2ccc(Nc3ncnc4nn5ccccc5c34)cc2Cl)c1 | 0
CSc1cccc2c(-c3ccncn3)c(-c3ccc(F)cc3)nn12 | 33.4
O=C1NC(=O)C(N2CCc3ccccc32)=C1c1ccccc1Cl | 20
O=S(=O)(c1ccc(-c2ccnc3[nH]ccc23)cc1)N1CCCC1 | 0
CCCCCc1nc2c(N)ncnc2n1CCCCC | 0
Nc1nc(-c2ccc3c(N)n[nH]c3c2)cc(N2CCCC2)n1 | 0
Cn1cc(-c2ccc3c(c2)CCN3C(=O)Cc2cc(F)cc(F)c2F)c2c(N)ncnc21 | 0
CSc1ccc(NC2=C(c3ccc(Cl)cc3)C(=O)NC2=O)cc1 | 0
Nc1nc(-c2ccccc2F)c(-c2ccnc3ccccc23)s1 | 46.7
O=C(Nc1n[nH]c2nc(-c3ccccc3)ccc12)C1CC1 | 0
NC(CNC(=O)c1cc(Br)c(-c2ccnc3[nH]ccc23)s1)c1ccccc1 (configuration not stated) | 40
